Measurements taken from patent US5491135A (priority 1993, dated 1996).
“And” between values parts separate entries of the source, which are not always exact repeats. Equal entries are not always repeated. “Also recorded” adds a separate entry of the source. Where two headings read alike, the source gives them in different places.

Legend:
HCMV strain AD 169 [1] = experiment: Rabbit model of HCMV chorioretinitis (Example 5); assay type: in vivo, pigmented rabbit
Experimental: A total of 32 pigmented rabbits were used in this study. Animals were evaluated by slit lamp and indirect ophthalmoscopy to determine normal ocular morphology and lack of preexisting pathology. Animals were handled as follows:
[1] On day 0, all rabbits were inoculated by mid-vitreal injection of 10^5 PFU HCMV strain AD 169 in 100 μl.
[2] Animals were maintained in individual cages and developing chorioretinal HCMV disease was monitored daily. On day 2 PI, HCMV-inoculated animals were divided into 8 groups of 4 rabbits each with matched chorioretinal disease scores. The HCMV-infected rabbits received intravenous therapy as indicated below:
Group #1--4 animals, intravenous injection of high dose experimental drug (50 mg/kg) daily from day 2 through 10 PI. A total of 9 IV injections.
Group #3--4 animals, intravenous injection of low dose experimental drug (20 mg/kg) daily from day 2 through 10 PI. A total of 9 IV injections.
Group #4--4 animals, intravenous injection of high dose experimental drug (50 mg/kg) daily from day 2 through 10 PI (a total of 9 IV injections) plus high dose DHPG 10 mg/kg/day in 2 divided doses from day 2 through 10 PI (a total of 18 IV injections).
Group #5--4 animals, intravenous injection of high dose experimental drug (50 mg/kg) daily from day 2 through 10 PI (a total of 9 IV injections) plus low dose DHPG 5 mg/kg/day in 2 divided doses from day 2 through 10 PI (a total of 18 IV injections).
Group #6--4 animals, intravenous injection of low dose experimental drug (20 mg/kg) daily from day 2 through 10 PI (a total of 9 IV injections) plus low dose DHPG 5 mg/kg/day in 2 divided doses from day 2 through 10 PI (a total of 18 IV injections).
Group #7--4 animals, intravenous injection of DHPG 10 mg/kg/day in 2 divided doses from day 2 through day 10 PI. A total of 18 IV injections.
Group #8--4 animals, intravenous injection of sterile saline on days 2 through 10 PI.
[3] All animals received daily indirect ophthalmoscopic examinations to evaluate clinical HCMV disease progression (From days 2 through 10 PI). The indirect ophthalmoscopic examinations were performed independently by two readers who were masked as to the therapy that the rabbits were receiving.
[4] All animals were sacrificed on day 12 PI. Chorioretina and iris tissues and vitreous samples will be removed and processed for HCMV recovery by cell sonicate assay on Hs68 cell monolayers. Selected ocular and lung tissue samples were processed for histochemistry to evaluate HCMV-induced ocular pathology in treated and non-treated groups.
The clinical, virus recovery and histological efficacy results for all drug-treated intravenous therapy groups were correlated with each other and with the placebo therapy group.

clinical HCMV isolate = assay type: cell-based
HCMV strain AD 169 [2] = experiment: Rabbit HCMV ascending dose efficacy and time course recovery (Example 7); details: for Average HCMV titer / HCMV Recovered, OD / HCMV Recovered, OS / HCMV Titer, OD / HCMV Titer, OS / HCMV recovery frequency / Optic neuritis score (ONH) / Vitreo-retinal score: PALA 50 or DHPG 10 mg/kg/d; for Vitreo-retinal score: sum of both eyes
[3] = PALA 50 daily, DHPG 10/day, or PALA 50 + DHPG 10 or 5 mg/kg i.v.

Nc1nc(O)c2ncn(COC(CO)CO)c2n1 [DHPG, reference compound]
HCMV recovery day 12 PI (HCMV strain AD 169 [1]; [3]): No HCMV was recovered | clinical efficacy (HCMV strain AD 169 [1]; [3]): did reduce the development of HCMV chorioretinal infection and disease; also recorded: effective in reducing the severity of HCMV-induced chorioretinal disease | lung appearance at sacrifice (HCMV strain AD 169 [1]; [3]): the lungs appeared normal | vitreitis severity (HCMV strain AD 169 [1]; [3]): moderate levels from day 4 through day 10 PI | eyes with stabilized chorioretinal disease (HCMV strain AD 169 [1]; by day 6-7 PI, DHPG 10 mg/kg/day): 70% | reduction of HCMV titer (clinical HCMV isolate): effective in reducing the titer | Cell associated HCMV titer (clinical HCMV isolate; day 0 PI): 10^2 PFU/ml | Cell free (supernatant) HCMV titer (clinical HCMV isolate; day 0 PI): 10^5 PFU/ml | Cell associated HCMV titer (clinical HCMV isolate; day 1 PI): 10^3 PFU/ml | Cell free (supernatant) HCMV titer (clinical HCMV isolate; day 1 PI): 10^1 PFU/ml | Cell associated HCMV titer (clinical HCMV isolate; day 2 PI): 10^2 PFU/ml | Cell free (supernatant) HCMV titer (clinical HCMV isolate; day 2 PI): 10^1 PFU/ml | Cell associated HCMV titer (clinical HCMV isolate; day 3 PI): 10^1 PFU/ml | Cell free (supernatant) HCMV titer (clinical HCMV isolate; day 3 PI): 10^1 PFU/ml | Cell associated HCMV titer (clinical HCMV isolate; day 4 PI): 10^1 PFU/ml | Cell free (supernatant) HCMV titer (clinical HCMV isolate; day 4 PI): 10^1 PFU/ml | Cell associated HCMV titer (clinical HCMV isolate; day 5 PI): 0 PFU/ml | Cell free (supernatant) HCMV titer (clinical HCMV isolate; day 5 PI): 0 PFU/ml | Cell associated HCMV titer (clinical HCMV isolate; day 6 PI): 10^1 PFU/ml | Cell associated HCMV titer (clinical HCMV isolate; day 7 PI): 10^1 PFU/ml | clinical disease / efficacy (HCMV strain AD 169 [2]; PALA 50 or DHPG 10 mg/kg/day i.v.): did reduce the development of HCMV-induced optic nerve disease severity; also recorded: vitreitis was only marginally affected | Average HCMV titer (HCMV strain AD 169 [2]; day 3): 10^3 pfu | HCMV Recovered, OD (HCMV strain AD 169 [2]; day 3): + | HCMV Recovered, OS (HCMV strain AD 169 [2]; day 3): - and + | HCMV Titer, OD (HCMV strain AD 169 [2]; day 3): 10^4 pfu | HCMV Titer, OS (HCMV strain AD 169 [2]; day 3): 10^3 pfu | HCMV recovery frequency (HCMV strain AD 169 [2]; day 3): 3/4 | Optic neuritis score (ONH) (HCMV strain AD 169 [2]; day 3): 5.0 and 4.0 | Vitreo-retinal score (HCMV strain AD 169 [2]; day 3): 4.75 and 5.0 | HCMV Recovered, OD (HCMV strain AD 169 [2]; day 4): + | HCMV Recovered, OS (HCMV strain AD 169 [2]; day 4): - | HCMV Titer, OD (HCMV strain AD 169 [2]; day 4): 10^2 pfu and 10^3 pfu | HCMV recovery frequency (HCMV strain AD 169 [2]; day 4): 2/4 | Optic neuritis score (ONH) (HCMV strain AD 169 [2]; day 4): 6.0 and 5.0 | Vitreo-retinal score (HCMV strain AD 169 [2]; day 4): 3.75 and 5.75 | Average HCMV titer (HCMV strain AD 169 [2]; day 5): 10^2 pfu | HCMV Recovered, OD (HCMV strain AD 169 [2]; day 5): - and + | HCMV Recovered, OS (HCMV strain AD 169 [2]; day 5): + and - | HCMV Titer, OD (HCMV strain AD 169 [2]; day 5): 10^2 pfu | HCMV Titer, OS (HCMV strain AD 169 [2]; day 5): 10^2 pfu | HCMV recovery frequency (HCMV strain AD 169 [2]; day 5): 2/4 | Optic neuritis score (ONH) (HCMV strain AD 169 [2]; day 5): 4.0 and 5.0 | Vitreo-retinal score (HCMV strain AD 169 [2]; day 5): 4.0 and 5.0 | Average HCMV titer (HCMV strain AD 169 [2]; day 6): 10^1 pfu | HCMV Recovered, OD (HCMV strain AD 169 [2]; day 6): - | HCMV Recovered, OS (HCMV strain AD 169 [2]; day 6): - and + | HCMV Titer, OD (HCMV strain AD 169 [2]; day 6): 10^2 pfu | HCMV recovery frequency (HCMV strain AD 169 [2]; day 6): 1/4 | Optic neuritis score (ONH) (HCMV strain AD 169 [2]; day 6): 2.0 | Optic neuritis score (ONH) (HCMV strain AD 169 [2]; day 7): 2.0 | Vitreo-retinal score (HCMV strain AD 169 [2]; day 7): 3.25 and 5.5 | HCMV Recovered, OD (HCMV strain AD 169 [2]; day 12): - | HCMV Recovered, OS (HCMV strain AD 169 [2]; day 12): -
